The record followed here is ChEMBL document CHEMBL6103570, “An endoplasmic reticulum and lipid droplets dual-localized strategy to develop small molecular photosensitizers that induce ferroptosis during photodynamic therapy” (Eur J Med Chem, 2025).

The nature of series [1]: Photo selectivity index, ratio of CC50 for darktoxicity in mouse 4T1 cells assessed as cell viability preincubated for 24 hrs followed by incubation under dark condition for 24 hrs by MTT assay to IC50 for phototoxicity in mouse 4T1 cells assessed as cell viability preincubated for 24 hrs followed by white light irradiation at 20 mW/cm2 for 10 mins and measured after 24 hrs by MTT assay. It counts as toxicity, cell-based. Particulars: read-out: Ratio CC50/IC50. (Formazan colour is commonly taken as a measure of viable cells.)

Series [2] is described as follows: Potency index, ratio of IC50 for Chlorin e6 to IC50 for test compound for phototoxicity in human MDA-MB-231 cells assessed as cell viability preincubated for 24 hrs followed by white light irradiation at 20 mW/cm2 for 10 mins and measured after 24 hrs by MTT assay. It counts as functional. Particulars: time 48 hrs.
Series [3] can be described thus: Photo selectivity index, ratio of CC50 for darktoxicity in human Bcap37 cells assessed as cell viability preincubated for 24 hrs followed by incubation under dark condition for 24 hrs by MTT assay to IC50 for phototoxicity in human Bcap37 cells assessed as cell viability preincubated for 24 hrs followed by white light irradiation at 20 mW/cm2 for 10 mins and measured after 24 hrs by MTT assay. It counts as toxicity, cell-based. The settings on record: read-out: Ratio CC50/IC50.

The test system of series [4] is 4T1. The series can be described thus: Antitumor activity against mouse 4T1 cells implanted in mouse model assessed as reduction in metastatic tumor at 3 mg/kg, IG measured every two days for 15 days by digital caliper method. It counts as functional, organism-based. Particulars: time 15.0 day.
Series [5] has as its system 4T1. Kind of series: Antitumor activity against mouse 4T1 cells implanted in mouse model assessed as reduction in tumor weight at 3 mg/kg, IG measured every two days for 15 days under 80 mW/cm2 for 15 mins by digital caliper method. The settings on record: time 15.0 day. In kind it is functional, organism-based.
A short description of series [6]: Photosensitizing ability of the compound in NaOH assessed as fluorescence quantum yield. It counts as functional.
Series [7] can be described thus: Toxicity in mouse assessed as effect on spleen in at 3 mg/kg, IG measured after 15 days by H and E staining based analysis. In kind it is organism-based. Particulars: in vivo, po, 360 h, time 15 day.
Series [8] concerns 4T1. The series can be described thus: Induction of intracellular ROS generation in mouse 4T1 cells assessed as increase in green fluorescence intensity at 5 to 60 nM incubated in dark for 24 hrs followed by compound removal and measured after 5 mins under 20 mW/cm2H2 white light irradiation by H2-DCFDA staining based fluorescence assay. In kind it is functional, cell-based. The settings on record: dose 5-60 nM.

Calls of active or inactive are those of the source. The rule behind the calls is not given here.

For `COC(=O)c1cc2c3ccccc3n(C)c2c(C2=C3C(C)=C(I)C(C)=[N+]3[B-](F)(F)n3c(C)c(I)c(C)c32)n1`, the selectivity ratio in series [1] is over 5290; in series [3] it was over 8830. For the same compound, in series [2], the “Ratio IC50” value is on record as 38. The outcome in the series on 4T1 [4], with 4T1 [5] and in the series on 4T1 [8] was Active. Further, the Activity was 0.22 in series [6] and “Non-toxic” in series [7].
